# Columns and labels:
# [1] = system: tumor cell lines (native and resistant subclones) and non-tumor cell lines
# Experimental: (§5) Six unambiguously characterized tumor cell lines of human origin (native cell lines and those converted into resistant subclones) and two non-tumor cell lines are used for further investigations (table 2).
# (§6) The sensitivity of the cell lines to the substance (Ic′) is determined in a so-called sulforhodamine B (SRB) assay.
# (§7) The concentration of substance (Ic′) which inhibits cell growth by 50% (IC50, determined from semilogarithmic dose versus effect plots) are indicated.
# [2] = system: HCT8 WT cells (carcinoma of colon); assay: SRB assay, HCT8 WT; type: cell-based, human
# Source text: The target cell used is, inter alia, a bowel cancer cell line of human origin (HCT8 WT).
# [3] = system: HCT8 WT bowel cancer cells; assay: Cell cycle analysis by flow cytometry (BrdU/PI); type: cell-based, human; conditions: IC50 concentration, 24 hours
# Experimental: Flow cytometric investigations by an adapted method of Tsugita M. et al. are used for the analysis.
# Exponentially growing HCT8 WT bowel cancer cells are treated with substance (Ic′) with the determined IC50 concentration for 24 hours, and then the cells are incubated with BrdU. The cells fixed with methanol are subjected to a treatment with a detergent (Triton X-100/HCl) in order to denature the DNA strands. After incubation with the fluorescence-labeled antibody (anti-BrdU mAb, FITC-labeled), the second fluorescent dye (PI, propidium iodide) is added.
# The DNA content (propidium iodide fluorescence) and the amount of BrdU taken up (FITC fluorescence) are determined using a Coulter flow cytometer (Coulter EPICS XL). Exemplary results are depicted in FIG. 3a and 3b.
# FIG. 3a and 3b show BrdU and PI uptakes into the DNA of HCT8 WT cells, untreated (control, […]) and treated with substance (Ic′) (IC50, 24 hours, FIG. 4b). The depicted results are representative of n=3 independent experiments.
# [4] = system: MCF-7 WT cells (adenocarcinoma of breast); assay: SRB assay, MCF-7 WT; type: cell-based, human
# Experimental: as §6, §7
# topoisomerase I = target: T1, topoisomerase I (Homo sapiens, UniProt P11387); assay: Topo I unwinding assay (pBR322 plasmid DNA, cell nucleus extract); type: biochemical; conditions: for concentration for in vitro topoisomerase I inhibition as multiple of the IC50 of tumor growth: multiple of the concentration inhibiting tumor cell growth by 50%
# T1 construct: 160 ng of cell nucleus extract with the topoisomerase I present therein; endogenous in cells; host or cells: tumor cell lines (cell nucleus extract)
# T1 sequence (P11387 1-765): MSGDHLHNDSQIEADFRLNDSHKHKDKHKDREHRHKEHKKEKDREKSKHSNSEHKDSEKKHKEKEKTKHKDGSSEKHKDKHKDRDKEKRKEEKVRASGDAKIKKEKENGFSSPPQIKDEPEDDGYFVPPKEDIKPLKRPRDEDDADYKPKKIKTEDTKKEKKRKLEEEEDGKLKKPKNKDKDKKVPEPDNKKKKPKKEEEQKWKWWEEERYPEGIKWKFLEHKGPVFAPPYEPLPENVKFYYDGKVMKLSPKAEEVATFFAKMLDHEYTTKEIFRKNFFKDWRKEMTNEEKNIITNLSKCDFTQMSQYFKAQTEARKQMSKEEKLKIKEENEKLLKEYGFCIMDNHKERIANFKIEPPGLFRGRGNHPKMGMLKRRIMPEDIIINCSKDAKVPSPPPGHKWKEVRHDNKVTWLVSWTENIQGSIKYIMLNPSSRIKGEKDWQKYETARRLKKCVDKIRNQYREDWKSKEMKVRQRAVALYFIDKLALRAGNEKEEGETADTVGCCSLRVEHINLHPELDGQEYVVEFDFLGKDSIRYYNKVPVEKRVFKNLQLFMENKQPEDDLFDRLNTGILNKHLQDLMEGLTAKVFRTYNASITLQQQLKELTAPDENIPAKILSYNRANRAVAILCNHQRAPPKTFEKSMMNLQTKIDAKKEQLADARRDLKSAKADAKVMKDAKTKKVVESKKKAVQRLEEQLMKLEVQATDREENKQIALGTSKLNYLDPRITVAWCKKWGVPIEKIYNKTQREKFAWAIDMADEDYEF
# Source text: The effect of the substance (Ic′) on topoisomerase I is investigated by carrying out the so-called Topo I unwinding assay. The assay is based on an ATP-independent unwinding of twisted pBR322 plasmid DNA dimers by topoisomerase I. The two different topological forms of the plasmid DNA, the twisted form and unwound, relaxed form, are separated in this investigation by means of an agarose gel. The enzyme topoisomerase I is obtained for this purpose from cell nucleus extracts of the tumor cell lines.
# Cell nucleus extracts are obtained by the method of Sullivan with the modifications of Danks et al.
# [5] = system: MCF-7 24R cells (5-FU resistant); assay: SRB assay, MCF-7 24R; type: cell-based, human
# Experimental: as §5, §6, §7
# [6] = system: MCF-7 AD cells (doxorubicin resistant gp 170+); assay: SRB assay, MCF-7 AD; type: cell-based, human
# Experimental: as §5, §6, §7
# [7] = system: A2780 CP2 cells (cisplatin resistant); assay: SRB assay, A2780 CP2; type: cell-based, human
# Experimental: as §5, §6, §7
# [8] = system: HCT8 ICID cells (raltitrexed resistant); assay: SRB assay, HCT8 ICID; type: cell-based, human
# Experimental: as §6, §7
# [9] = system: A2780 WT cells (adenocarcinoma of ovary); assay: SRB assay, A2780 WT; type: cell-based, human
# Experimental: as §5, §6, §7
# [10] = system: MCR-5 diploid embryonic lung fibroblasts; assay: SRB assay, MCR-5; type: cell-based; conditions: MCR-5 fibroblasts (non-tumor)
# Experimental: as §5, §6, §7
# [11] = system: HCT8 WT colon carcinoma cells
# Experimental: In this case, tumor cells, e.g. colon carcinoma cells (HCT8 WT), are coincubated with both active ingredients in different dosages in each case for 24 hours (FIG. 9). FIG. 9 represents the coincubation experiment on the cytotoxicity with substance (Ic′) and a specific ERK1/2 inhibitor (MAP kinase inhibitor). HCT8 WT cells were coincubated. The points shown indicate the corresponding ratios (% of the respective IC50 concentration) of the two active ingredients to one another.
# [12] = system: H460 WT cells (large-cell lung carcinoma); assay: SRB assay, H460 WT; type: cell-based, human
# Experimental: as §5, §6, §7
# [13] = system: H460 WT bronchial carcinoma cells; assay: DNA double-strand breaks in [14C]d-thymidine-labeled cells, H460 WT; type: cell-based, human; conditions: up to 10 times the IC50 concentration, 6 hours
# Experimental: (§1) DNA isolated after treatment of the cells for various times with substance (Ic′) is for this purpose analyzed by gel electrophoresis.
# (§2) Determination of the DNA double-strand breaks is performed on ^14C-labeled DNA. For this purpose, [^14C]d-thymidine-labeled cells are treated with various concentrations of substance (Ic′). The DNA is isolated by an adapted method of Chia Chiao et al.
# (§3) The DNA fractionated by gel electrophoresis is subsequently stained with ethidium bromide.
# (§4) On a transilluminator (302 nm), the intact DNA which has not migrated in the electric field is separated from the fragmented DNA, which has thus migrated into the gel, by extraction. The isolated gel and DNA fragments are liquefied at +80° C. in the presence of hydrochloric acid. After addition of a scintillator it is possible to determine the radioactivity using a liquid scintillation meter (TPI-CARB 2100RT). The measured radioactivity is indicated in […] (cpm).
# The results represent averages and their standard deviation from n=3 independent experiments.
# [14] = system: HT29 24R cells (5-FU resistant); assay: SRB assay, HT29 24R; type: cell-based, human
# Experimental: as §6, §7
# Taq polymerase = Taq polymerase (Thermus aquaticus, UniProt P19821); assay: TSR8 template control experiment (DNA polymerase); type: biochemical; conditions: maximum concentration 50 μg/ml
# Experimental: In order to ensure the effect of substance (Ic′) on telomerase, an effect of substance (Ic′) on DNA polymerase must be ruled out. In a preliminary experiment with TSR8 as internal control, the effect of substance (Ic′) at various concentration levels was ruled out.
# Amplification of the TSR8 template depends only on DNA polymerase. Every inhibitor of this enzyme can be detected using the substrate.
# The experiment is carried out in triplicates.
# [15] = system: HT29 SN38 cells (SN38 resistant); assay: SRB assay, HT29 SN38; type: cell-based, human
# Experimental: as §6, §7
# [16] = system: HCT8 SN38 cells (SN38 resistant); assay: SRB assay, HCT8 SN38; type: cell-based, human
# Experimental: as §6, §7
# 3T3 mouse fibroblasts = assay: SRB assay, 3T3; type: cell-based; conditions: 3T3 mouse fibroblasts (non-tumor)
# Experimental: as §5, §6, §7
# [17] = system: A2780 DX5 cells (doxorubicin resistant gp 170+); assay: SRB assay, A2780 DX5; type: cell-based, human; conditions: A2780 DX5, doxorubicin resistant gp 170+
# Experimental: as §5, §6, §7
# [18] = system: HT29 WT cells (adenocarcinoma of colon); assay: SRB assay, HT29 WT; type: cell-based, human
# Experimental: as §6, §7
# [19] = system: HT29 WT colorectal carcinoma cells; assay: DNA double-strand breaks, HT29 WT; type: cell-based, human
# Experimental: as §1, §2, §3, §4
# human telomerase = target: T2, human telomerase (Homo sapiens, UniProt O14746); assay: Telomeric Repeat Amplification Assay (TRAP) ELISA; type: biochemical; conditions: at 50 μg/ml; telomerase from HCT8 WT cells; range 10 to 50 μg/ml tested
# T2 construct: human telomerase obtained from cells of a colon carcinoma (HCT8 WT); endogenous in cells; host or cells: HCT8 WT colon carcinoma cells
# Experimental: The effect of substance (Ic′) on human telomerase is determined by carrying out the so-called Telomeric Repeat Amplification Assay (TRAP) ELISA, based on the method of N. W. Kim et al.
# This method is based on use of the polymerase chain reaction (PCR). This entails, in a first step, a number of (GGTTAG) motifs being attached by means of the telomerase activity to the 3′ end of a biotin-labeled oligonucleotide (TS=telomerase substrate). In a second step, the products extended in this way are amplified by the PCR technique using TS and RP (R=reverse) primers. In this way, a “ladder” of products in increments of 6 bases (initial size=50 nucleotides) is generated. During the amplification, DNP-labeled dCTP is incorporated into the PCR products. Detection and quantification of the synthesized telomerase products using a sandwich ELISA method are a measure of the telomerase enzymatic activity.
# The telomerase products carry the biotin-labeled TS primers and bind to the surface of microtiter plates previously coated with streptavidin. An anti-DIG antibody conjugated to POD binds to the […] nucleotides incorporated during the amplification. After addition of the substrate TMB, the telomerase activity is visualized by […] via the onset of the color reaction by the enzyme POD. In this case, the measured absorption is directly proportional to the telomerase activity. […]
# [20] = system: ERK1/2 protein (MAP kinase); assay: Western blot analysis of ERK1/2 phosphorylation; type: cell-based, human; conditions: HCT8 WT, detectable even at a dose corresponding to the IC50
# Source text: Phosphorylation of certain signal transduction pathways plays an essential role in the regulation of cell growth and gene expression. The protein ERK1/2 (MAP kinase) belongs to the MAP kinase signal transduction pathway.
# Treatment of human colon carcinoma cells (HCT8 WT) with substance (Ic′) leads to phosphorylation of this protein, which is detected in a Western blot analysis (FIG. 8).
# [21] = system: M51 DDP cells (cisplatin resistant); assay: SRB assay, M51 DDP; type: cell-based, human
# Experimental: as §6, §7
# [22] = system: M51 WT cells (carcinoma of stomach); assay: SRB assay, M51 WT; type: cell-based, human; conditions: mean ± SD of at least three experiments
# Experimental: as §5, §6, §7
# T2 sequence (O14746 whole entry): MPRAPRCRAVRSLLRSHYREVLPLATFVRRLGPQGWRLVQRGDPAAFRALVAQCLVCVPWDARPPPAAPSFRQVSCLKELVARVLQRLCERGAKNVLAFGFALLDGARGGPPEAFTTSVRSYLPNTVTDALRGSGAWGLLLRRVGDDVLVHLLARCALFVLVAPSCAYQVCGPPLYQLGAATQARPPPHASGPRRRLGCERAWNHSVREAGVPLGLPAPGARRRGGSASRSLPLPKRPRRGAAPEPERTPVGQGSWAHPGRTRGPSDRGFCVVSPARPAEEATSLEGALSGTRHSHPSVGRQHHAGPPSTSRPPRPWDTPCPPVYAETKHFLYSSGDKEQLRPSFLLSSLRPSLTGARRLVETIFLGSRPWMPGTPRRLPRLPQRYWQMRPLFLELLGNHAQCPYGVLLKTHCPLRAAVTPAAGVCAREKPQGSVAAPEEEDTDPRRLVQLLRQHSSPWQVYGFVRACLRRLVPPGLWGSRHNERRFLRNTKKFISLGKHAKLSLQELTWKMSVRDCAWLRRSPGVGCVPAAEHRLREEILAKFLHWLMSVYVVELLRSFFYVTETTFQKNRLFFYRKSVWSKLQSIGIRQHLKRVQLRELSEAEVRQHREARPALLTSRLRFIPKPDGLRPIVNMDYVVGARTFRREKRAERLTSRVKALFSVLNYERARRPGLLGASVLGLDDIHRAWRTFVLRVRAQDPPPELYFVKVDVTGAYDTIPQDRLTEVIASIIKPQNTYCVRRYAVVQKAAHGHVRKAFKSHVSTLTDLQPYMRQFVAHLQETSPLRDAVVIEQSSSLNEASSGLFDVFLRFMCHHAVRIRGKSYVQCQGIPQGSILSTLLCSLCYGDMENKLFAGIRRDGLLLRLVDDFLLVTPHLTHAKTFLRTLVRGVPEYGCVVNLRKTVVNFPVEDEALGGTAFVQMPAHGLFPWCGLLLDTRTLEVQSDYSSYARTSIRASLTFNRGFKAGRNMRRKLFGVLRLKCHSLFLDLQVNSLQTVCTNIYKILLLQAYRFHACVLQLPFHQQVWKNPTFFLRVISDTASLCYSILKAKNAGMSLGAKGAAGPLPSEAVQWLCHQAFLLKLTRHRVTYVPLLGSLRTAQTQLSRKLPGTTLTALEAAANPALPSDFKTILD
# T2 sequence (O60832 whole entry partner): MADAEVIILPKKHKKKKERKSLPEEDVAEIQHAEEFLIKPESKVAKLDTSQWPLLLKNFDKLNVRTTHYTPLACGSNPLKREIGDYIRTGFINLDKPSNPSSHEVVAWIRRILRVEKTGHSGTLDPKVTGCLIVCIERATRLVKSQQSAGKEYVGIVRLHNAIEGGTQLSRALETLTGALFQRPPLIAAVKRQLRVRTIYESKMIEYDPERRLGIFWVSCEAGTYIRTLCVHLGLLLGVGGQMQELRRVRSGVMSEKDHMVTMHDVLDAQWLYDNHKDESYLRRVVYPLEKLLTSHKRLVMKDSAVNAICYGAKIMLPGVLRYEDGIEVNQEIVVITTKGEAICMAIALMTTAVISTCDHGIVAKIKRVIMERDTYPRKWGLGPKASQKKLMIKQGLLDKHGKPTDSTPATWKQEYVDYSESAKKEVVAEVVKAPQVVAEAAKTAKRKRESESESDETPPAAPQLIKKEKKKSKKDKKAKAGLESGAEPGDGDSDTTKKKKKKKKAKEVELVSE
# T2 sequence (Q9NX24 whole entry partner): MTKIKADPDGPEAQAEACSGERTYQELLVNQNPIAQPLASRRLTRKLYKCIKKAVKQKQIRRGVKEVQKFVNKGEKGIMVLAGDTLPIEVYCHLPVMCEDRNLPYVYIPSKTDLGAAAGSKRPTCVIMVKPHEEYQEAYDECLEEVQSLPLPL
# T2 sequence (Q9NPE3 whole entry partner): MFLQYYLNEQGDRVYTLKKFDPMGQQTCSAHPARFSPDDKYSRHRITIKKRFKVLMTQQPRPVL
# T2 sequence (Q9NY12 whole entry partner): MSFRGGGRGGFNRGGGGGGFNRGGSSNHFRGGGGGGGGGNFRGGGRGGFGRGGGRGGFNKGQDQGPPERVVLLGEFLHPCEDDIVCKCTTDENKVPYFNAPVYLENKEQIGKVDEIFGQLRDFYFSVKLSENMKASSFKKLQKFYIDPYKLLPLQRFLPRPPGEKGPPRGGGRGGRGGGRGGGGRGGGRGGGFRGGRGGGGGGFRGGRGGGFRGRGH
# T2 sequence (Q9BUR4 whole entry partner): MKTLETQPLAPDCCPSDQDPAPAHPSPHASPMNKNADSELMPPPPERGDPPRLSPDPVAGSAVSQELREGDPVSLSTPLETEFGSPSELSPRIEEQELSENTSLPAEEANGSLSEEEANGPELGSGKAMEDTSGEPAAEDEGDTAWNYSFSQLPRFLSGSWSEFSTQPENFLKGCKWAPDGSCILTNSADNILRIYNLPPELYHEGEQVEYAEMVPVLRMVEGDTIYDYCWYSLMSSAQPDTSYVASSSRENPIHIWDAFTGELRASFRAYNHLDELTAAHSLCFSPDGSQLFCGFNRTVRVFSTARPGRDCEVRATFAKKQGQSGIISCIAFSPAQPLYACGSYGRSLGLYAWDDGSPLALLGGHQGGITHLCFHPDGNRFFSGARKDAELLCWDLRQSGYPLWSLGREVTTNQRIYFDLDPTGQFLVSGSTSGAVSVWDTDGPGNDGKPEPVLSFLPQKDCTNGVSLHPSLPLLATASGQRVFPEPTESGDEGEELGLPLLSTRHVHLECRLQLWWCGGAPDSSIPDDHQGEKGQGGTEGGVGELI
# Sequence of Taq polymerase (P19821 whole entry): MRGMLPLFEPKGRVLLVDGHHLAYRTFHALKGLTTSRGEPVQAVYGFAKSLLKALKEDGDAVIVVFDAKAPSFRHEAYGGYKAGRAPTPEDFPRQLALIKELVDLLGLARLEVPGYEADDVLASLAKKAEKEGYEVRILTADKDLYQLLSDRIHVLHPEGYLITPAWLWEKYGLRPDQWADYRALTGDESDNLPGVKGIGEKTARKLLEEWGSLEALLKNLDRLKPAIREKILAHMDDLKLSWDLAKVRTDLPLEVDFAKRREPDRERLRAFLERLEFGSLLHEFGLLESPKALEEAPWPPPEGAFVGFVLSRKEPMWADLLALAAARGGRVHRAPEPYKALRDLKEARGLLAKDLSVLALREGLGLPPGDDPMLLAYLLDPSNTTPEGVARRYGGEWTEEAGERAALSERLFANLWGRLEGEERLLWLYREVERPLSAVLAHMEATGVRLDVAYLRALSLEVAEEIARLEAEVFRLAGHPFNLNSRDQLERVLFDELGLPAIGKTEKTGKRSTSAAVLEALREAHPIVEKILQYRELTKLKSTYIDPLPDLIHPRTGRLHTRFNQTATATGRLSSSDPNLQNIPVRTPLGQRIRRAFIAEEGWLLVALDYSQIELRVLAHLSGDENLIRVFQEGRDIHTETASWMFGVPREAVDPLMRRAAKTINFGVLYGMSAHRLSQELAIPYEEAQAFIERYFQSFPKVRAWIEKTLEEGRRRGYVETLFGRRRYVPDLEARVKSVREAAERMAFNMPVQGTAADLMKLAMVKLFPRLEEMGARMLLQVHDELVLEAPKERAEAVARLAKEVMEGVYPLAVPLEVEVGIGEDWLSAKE
molecule,measurement,setting,value
"1-Benzoyl-8,8-dimethyl-2-hydroxy-3,5,7-tris-(3-methyl-2-butenyl)bicyclo[3.3.1]non-2-ene-4,9-dione [Substance (Ic′)]",cytotoxicity for the non-tumor cell lines compared with tumor cell lines,[1],considerably less
same,cross-resistance to the indicated cytostatics,"[1]; resistant subclones vs native cell lines, SRB assay",no cross-resistance
same,IC50,[2],4.23 ± 0.19 µg/mL
same,effect on the cell cycle (BrdU uptake),[3],inhibition of the synthesis phase
same,IC50,[4],4.37 ± 0.12 µg/mL
same,inhibition of topoisomerase I activity,"topoisomerase I; at 100 μg/ml, 160 ng cell nucleus extract",100%
same,concentration for in vitro topoisomerase I inhibition as multiple of the IC50 of tumor growth,topoisomerase I,20 times
same,IC50,[5],3.30 ± 0.51 µg/mL
same,IC50,[6],4.28 ± 0.08 µg/mL
same,IC50,[7],6.23 ± 0.12 µg/mL
same,IC50,[8],4.44 ± 0.13 µg/mL
same,IC50,[9],9.20 ± 0.82 µg/mL
same,IC50,[10],21.73 ± 6.47 µg/mL
same,cytotoxicity on coincubation with a specific ERK1/2 inhibitor (MAP kinase inhibitor),[11],pronounced synergism
same,effect of the combination on tumor cell growth,"[11]; 30% of IC50 of substance (Ic′) with 30% of IC50 of the specific ERK1/2 inhibitor, HCT8 WT",inhibition of growth
same,IC50,[12],4.21 ± 0.91 µg/mL
same,induction of DNA double-strand breaks,[13],induces significant amounts of double-strand breaks
same,IC50,[14],5.18 ± 0.76 µg/mL
same,inhibition of Taq polymerase (TSR8 template),Taq polymerase,does not lead to a significant inhibition
same,IC50,[15],3.50 ± 1.40 µg/mL
same,IC50,[16],4.07 ± 0.08 µg/mL
same,IC50,3T3 mouse fibroblasts,>80.0 µg/mL
same,IC50,[17],6.75 ± 1.55 µg/mL
same,IC50,[18],5.25 ± 0.43 µg/mL
same,induction of DNA double-strand breaks,[19],induction of substantial amounts of double-strand breaks
same,inhibition of human telomerase,human telomerase,Complete inhibition
same,phosphorylation of the ERK1/2 protein,[20],dose-dependent phosphorylation
same,IC50,[21],4.77 ± 0.13 µg/mL
same,IC50,[22],5.70 ± 0.21 µg/mL
"CC[C@@]1(O)C(=O)OCc2c1cc1n(c2=O)Cc2cc3c(CN(C)C)c(O)ccc3nc2-1 [topotecan, reference compound]",concentration for in vitro topoisomerase I inhibition as multiple of the IC50 of tumor growth,topoisomerase I,1000 times
